Source: patent US7834242B2, “S-adenosyl-L-methionine synthetase promoter and its use in expression of transgenic genes in plants” (E. I. du Pont de Nemours and Company, priority 2003, dated 2010)

Columns and labels:
[1] = test system: soybean plants; test: Spray test for tolerance to SU herbicide; format: in vivo; conditions: 60 grams active ingredient per hectare
Description: Soybean plants, transformed with either pZSL13 or pZSL14, were tested for tolerance to SU herbicide. A spray solution was made containing 60 grams of Thifensulfuron-methyl active ingredient per hectare and 0.25% wt/wt of AL-2999 nonionic surfactant. Thifensulfuron-methyl has the chemical name, methyl 3-[[[[(4-methoxy-6-methyl-1,3,5-triazin-2-yl)amino]carbonyl]amino]sulfonyl]-2-thiophenecarboxylate, and is the active ingredient in the two DuPont sulfonylurea herbicides, HARMONY GT® and PINNACLE®. Either HARMONY GT® or PINNACLE® can be used as the source of this sulfonylurea for the spray test. AL-2999 is a nonionic surfactant, obtainable as ATPLUS UCL 1007® from Uniqema. This mixture was evenly sprayed onto the soybean plants at the 1st or 2nd trifoliate stage of development. After waiting approximately two weeks the results were scored. All wild-type plants (or plants lacking the SAMS:herbicide-resistant ALS transgene) were dead (negative control), all plants from commercially available STS® (Sulfonylurea Tolerant Soybean) seeds were alive (positive control), and plants containing the SAMS:herbicide-resistant ALS transgene from either pZSL13 or pZSL14 also survived. Consequently, either the 1.3-kb (SEQ ID NO:6) or the 2.1-kb (SEQ ID NO:14) fragment from the SAMS gene can drive expression of the mutant ALS gene at levels sufficient to provide tolerance to SU.

[2] = test system: SAMS promoter; test: Induction of SAMS promoter activity by methionine (GUS activity of SAMS::GUS seedlings); format: in vivo, Arabidopsis
Description: (§1) To see if SAMS promoter is regulated by external methionine, the SAMS::GUS transgenic Arabidopsis seeds were germinated in the presence of either H2O, 1× Murashige and Skoog salt (GIBCO BRL), 0.01 mM methionine (Sigma), or 1 mM methionine. Ten days old seedlings from ten independent transgenic lines were analyzed for GUS activity according to the protocol described in Example 5.

[3] = test system: Arabidopsis seeds
Description: as §1

[4] = test system: transgenic Arabidopsis plants; test: Fluorometric GUS assay of SAMS::GUS transgenic plants; format: in vivo, Arabidopsis thaliana; conditions: developing seeds of SAMS::GUS Arabidopsis
Description: FIG. 5 depicts a fluorometric GUS expression assay of transgenic Arabidopsis plants harboring the SAMS::GUS expression cassette. Triple samples of flowers, leaves, stems, siliques coats, young seeds, medium seeds, old seeds, and dry seeds collected from SAMS::GUS transgenic Arabidopsis plants were assayed for GUS activity. The graph was generated by Microsoft Excel and the standard deviation is indicated by the upper part of each column.
The activity of the soybean SAMS promoter was tested by its ability to express the GUS reporter gene in transgenic Arabidopsis plants carrying the SAMS promoter::GUS::3′ Nos expression casstette. […]
The GUS activities of the transgenic Arabidopsis plants were further analyzed by a fluorometric assay. For fluorescence analysis, plant tissues were ground in microfuge tubes with extraction buffer, 50 mM phosphate buffer, pH 7.0, 10 mM EDTA, 0.1% Triton X-100, 0.1% N-lauroyl sarcosine, and 10 mM β-mercaptoethanol, to homogeneity. The samples were centrifuged at 14,000 rpm for 10 minutes, and aliquots of the supernatant were used to determine protein concentrations by the Bradford method (Bio-Rad, Hercules, Calif.) using 96 well microtiter plates read with a kinetic microplate reader (Molecular Devices, Sunnyvale, Calif.). […] Data were entered into a Microsoft Excel spread sheet and analyzed. […]

For COC(=O)c1sccc1S(=O)(=O)NC(=O)Nc1nc(C)nc(OC)n1 [Thifensulfuron-methyl, methyl 3-[[[[(4-methoxy-6-methyl-1,3,5-triazin-2-yl)amino]carbonyl]amino]sulfonyl]-2-thiophenecarboxylate], the “Plant survival after spray” value ([1]; plants containing SAMS:herbicide-resistant ALS transgene from pZSL13 or pZSL14, approximately two weeks) was “survived”, the “Plant survival after spray” value ([1]; plants from commercially available STS seeds, approximately two weeks) was “alive” and the “Plant survival after spray” value ([1]; wild-type plants (lacking transgene), 0.25% AL-2999, scored after approximately two weeks) was “dead”.

With CSCC[C@H](N)C(=O)O [methionine] the “SAMS activity induced (GUS activity) compared to H2O treatment” value ([2]; 0.01 mM free methionine, ten days old seedlings, ten transgenic lines) was “more than two-fold”, the “Induction effect of SAMS promoter” value ([2]; 1 mM methionine) was “less than that by 0.01 mM methionine” and the “Toxic effect on seedlings” value ([3]; 1 mM methionine) was “smaller sizes and shorter roots of the seedlings”. For the same molecule, the “Toxic effect on germination and survival” value ([3]; 10 mM free methionine) was “only a few Arabidopsis seeds were able to germinate and none survived”.

B1: SAMS promoter: soybean S-adenosyl-L-methionine synthetase promoter fragment, 1314 bp, SEQ ID NO:6 (nucleic acid)
DNA: TCTAGATCAAACTCACATCCAAACATAACATGGATATCTCCTTACCAATCATACTAATTATTTTGGGTTAAATATTAATCATTATTTTTAAGATATTAATTAAGAAATTAAAAGATTTTTTAAAAAAATGTATAAAATTATATTATTCATGATTTTTCATACATTTGATTTTGATAATAAATATATTTTTTTTAATTTCTTAAAAAATGTTGCAAGACACTTATTAGACATAGTCTTGTTCTGTTTACAAAAGCATTCATCATTTAATACATTAAAAAATATTTAATACTAACAGTAGAATCTTCTTGTGAGTGGTGTGGGAGTAGGCAACCTGGCATTGAAACGAGAGAAAGAGAGTCAGAACCAGAAGACAAATAAAAAGTATGCAACAAACAAATCAAAATCAAAGGGCAAAGGCTGGGGTTGGCTCAATTGGTTGCTACATTCAATTTTCAACTCAGTCAACGGTTGAGATTCACTCTGACTTCCCCAATCTAAGCCGCGGATGCAAACGGTTGAATCTAACCCACAATCCAATCTCGTTACTTAGGGGCTTTTCCGTCATTAACTCACCCCTGCCACCCGGTTTCCCTATAAATTGGAACTCAATGCTCCCCTCTAAACTCGTATCGCTTCAGAGTTGAGACCAAGACACACTCGTTCATATATCTCTCTGCTCTTCTCTTCTCTTCTACCTCTCAAGGTACTTTTCTTCTCCCTCTACCAAATCCTAGATTCCGTGGTTCAATTTCGGATCTTGCACTTCTGGTTTGCTTTGCCTTGCTTTTTCCTCAACTGGGTCCATCTAGGATCCATGTGAAACTCTACTCTTTCTTTAATATCTGCGGAATACGCGTTGGACTTTCAGATCTAGTCGAAATCATTTCATAATTGCCTTTCTTTCTTTTAGCTTATGAGAAATAAAATCATTTTTTTTTATTTCAAAATAAACCTTGGGCCTTGTGCTGACTGAGATGGGGTTTGGTGATTACAGAATTTTAGCGAATTTTGTAATTGTACTTGTTTGTCTGTAGTTTTGTTTTGTTTTCTTGTTTCTCATACATTCCTTAGGCTTCAATTTTATTCGAGTATAGGTCACAATAGGAATTCAAACTTTGAGCAGGGGAATTAATCCCTTCCTTCAAATCCAGTTTGTTTGTATATATGTTTAAAAAATGAAACTTTTGCTTTAAATTCTATTATAACTTTTTTTATGGCAAAAATTTTTGCATGTGTCTTTGCTCTCCTGTTGTAAATTTACTGTTTAGGTACTAACTCTAGGCTTGTTGTGCAGTTTTTGAAGTATAACCATGG
modifications: Glycine max
B1 was tested, and the GUS specific activities [4] was 5-40 pmole 4-Mu (4-methylumbelliferone) per microgram protein per minute.
